Assay results: patent US20170360795A1, “TREATMENT OF CANCERS USING PI3 KINASE ISOFORM MODULATORS” (INFINITY PHARMACEUTICALS, INC., priority 2013, published 2017)

Tests used:
HH = HH (T cell lymphoma); combination with Compound 292
Protocol: (§1) The method is described as follows. Cells are thawed from a liquid nitrogen preserved state. Once cells have been expanded and divide at their expected doubling times, screening begins. Cells are seeded in growth media in either black 1536-well or 384-well tissue culture treated plates. […] These Tzero (T0) plates are read using ultra-sensitive luminescence on Envision plate readers (Perkin Elmer). […] All data points are collected via automated processes, quality controlled and analyzed using Zalicus software.
(§2) I ranges from 0% (when T=V) to 100% (when T=0). […] The measure of effect in the experiment can be the inhibition of cellular response relative to the untreated level (vehicle alone). For untreated vehicle and treated levels V and T, a fractional inhibition I=1−T/V is calculated. The inhibition ranges from 0% at the untreated level to 100% when T=0. Inhibition levels are negative for agents that actually increase levels. Other effect measures, such as an activity ratio r=T/V may be more appropriate for some assays. When activity ratios (e.g, fold increase over stimulated control) are being used, the effect can be measured using an induction I=ln(T/V). With this definition, all effect expressions are the same as for inhibition.
(§3) Growth Inhibition (GI) is used as a measure of cell viability. […] A GI reading of 100% represents complete growth inhibition −T72 compound-treated and T0 vehicle signals are matched. […] A GI reading of 200% represents complete death of all cells in the culture well. Compounds reaching an activity plateau of GI 200% are considered cytotoxic. GI is calculated by applying the following test and equation: […]
(§4) Combination analysis data were collected in a 6×6 dose matrix. Synergy is calculated by comparing a combination's response to those of its single compound, against the drug-with-itself dose-additive reference model. Deviations from dose additivity may be assessed visually on an isobologram or numerically with a Combination Index (CI). […] Additive effect is CI=1.0. […] Antagonistic effect is CI>1.0.
(§5) To measure combination effects in excess of Loewe additivity, a scalar measure to characterize the strength of synergistic interaction termed the Synergy Score is devised. The Synergy Score is calculated as: […]
(§6) The fractional inhibition for each component agent and combination point in the matrix is calculated relative to the median of all vehicle-treated control wells. The Synergy Score equation integrates the experimentally-observed activity volume at each point in the matrix in excess of a model surface numerically derived from the activity of the component agents using the Loewe model for additivity. Additional terms in the Synergy Score equation (above) are used to normalize for various dilution factors used for individual agents and to allow for comparison of synergy scores across an entire experiment. The inclusion of positive inhibition gating or an Idata multiplier removes noise near the zero effect level, and biases results for synergistic interactions at that occur at high activity levels.

KARPAS-422 = KARPAS-422 (follicular lymphoma); combination with Compound 292
Protocol: as §1, §2, §3, §4, §5, §6

U-2932 = U-2932 (DLBCL ABC); combination with Compound 292
Protocol: as §1, §2, §3, §4, §5, §6

OCI-Ly7 = OCI-Ly7 (DLBCL GCB); combination with Compound 292
Protocol: as §1, §2, §3, §4, §5, §6

Jeko-1 = Jeko-1 (mantle cell lymphoma); combination with Compound 292
Protocol: as §1, §2, §3, §4, §5, §6

GRANTA-519 = GRANTA-519 (mantle cell lymphoma); combination with Compound 292
Protocol: as §1, §2, §3, §4, §5, §6

OCI-LY3 = details: OCI-Ly3 (DLBCL ABC); combination with Compound 292
Protocol: as §1, §2, §3, §4, §5, §6

NCI-H929 = NCI-H929 (multiple myeloma); combination with Compound 292
Protocol: as §1, §2, §3, §4, §5, §6

HBL-1 = HBL-1 (DLBCL ABC); combination with Compound 292
Protocol: as §1, §2, §3, §4, §5, §6

OPM-2 = OPM-2 (multiple myeloma); combination with Compound 292
Protocol: as §1, §2, §3, §4, §5, §6

KARPAS-299 = KARPAS-299 (T cell lymphoma); combination with Compound 292
Protocol: as §1, §2, §3, §4, §5, §6

RPMI-8226 = assay: combination screen with BTK inhibitors, 72 hours ATPLite; format: cell-based; details: RPMI-8226 (multiple myeloma); combination with Compound 292
Protocol: as §1, §2, §3, §4, §5
(§7) The fractional inhibition for each component agent and combination point in the matrix is calculated relative to the median of all vehicle-treated control wells. The Synergy Score equation integrates the experimentally-observed activity volume at each point in the matrix in excess of a model surface numerically derived from the activity of the component agents using the Loewe model for additivity. […]

PI3K δ = PI3K δ (Homo sapiens, UniProt O00329); assay: In vitro IC50, PI3K δ (Table 3); format: biochemical; set-up: purchased Upstate
Description: (§8) Other commercial kits or systems for assaying PI3K activities are available. […] An exemplary system is PI 3-Kinase (human) HTRF™ Assay from Upstate.

PI3K β = biological target: T1, PI3K β (Homo sapiens, UniProt P42338); assay: In vitro IC50, PI3K β (Table 3); format: biochemical
T1 construct: purchased Upstate
Description: as §8

PI3K γ = PI3K γ (Homo sapiens, UniProt P48736); assay: In vitro IC50, PI3K γ (Table 3); format: biochemical; set-up: purchased Sigma
Description: as §8

B cell = B cell proliferation EC50 (Table 3); format: cell-based
PI3K α = biological target: T2, PI3K α (Homo sapiens, UniProt P42336); assay: In vitro IC50, PI3K α (Table 3); format: biochemical
T2 construct: purchased Upstate
Description: as §8

RL = assay: combination screen with BTK inhibitors, 72 hours ATPLite; format: cell-based; details: RL (follicular lymphoma); combination with Compound 292
Protocol: as §1, §2, §3, §4, §5, §7

T1 sequence (P42338 whole entry): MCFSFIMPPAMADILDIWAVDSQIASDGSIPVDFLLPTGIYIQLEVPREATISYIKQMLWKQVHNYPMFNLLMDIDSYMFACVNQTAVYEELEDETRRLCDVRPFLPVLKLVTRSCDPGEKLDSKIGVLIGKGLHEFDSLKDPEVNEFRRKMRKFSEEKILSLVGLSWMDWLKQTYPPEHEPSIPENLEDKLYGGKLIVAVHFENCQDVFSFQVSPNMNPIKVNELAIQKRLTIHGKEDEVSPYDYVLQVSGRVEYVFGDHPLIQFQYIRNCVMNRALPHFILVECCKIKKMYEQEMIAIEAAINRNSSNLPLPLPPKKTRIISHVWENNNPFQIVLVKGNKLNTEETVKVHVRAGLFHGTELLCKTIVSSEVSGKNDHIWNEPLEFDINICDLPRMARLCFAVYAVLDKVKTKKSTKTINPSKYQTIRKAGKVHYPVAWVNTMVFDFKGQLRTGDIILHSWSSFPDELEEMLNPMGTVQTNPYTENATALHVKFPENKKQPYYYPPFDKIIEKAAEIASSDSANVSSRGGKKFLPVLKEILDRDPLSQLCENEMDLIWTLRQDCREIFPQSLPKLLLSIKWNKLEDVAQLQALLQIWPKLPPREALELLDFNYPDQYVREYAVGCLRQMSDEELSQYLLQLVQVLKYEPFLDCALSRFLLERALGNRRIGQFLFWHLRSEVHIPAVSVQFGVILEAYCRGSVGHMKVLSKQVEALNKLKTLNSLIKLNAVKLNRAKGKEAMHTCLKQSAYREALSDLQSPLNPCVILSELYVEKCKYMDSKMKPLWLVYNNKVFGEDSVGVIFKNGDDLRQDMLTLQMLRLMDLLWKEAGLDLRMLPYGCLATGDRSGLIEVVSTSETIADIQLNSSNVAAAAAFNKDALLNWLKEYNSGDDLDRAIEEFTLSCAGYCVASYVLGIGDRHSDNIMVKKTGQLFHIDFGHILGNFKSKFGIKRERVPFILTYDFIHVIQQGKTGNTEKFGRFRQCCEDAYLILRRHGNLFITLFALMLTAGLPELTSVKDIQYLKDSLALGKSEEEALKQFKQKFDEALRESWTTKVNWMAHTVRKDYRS
T1 sequence (P27986 whole entry partner): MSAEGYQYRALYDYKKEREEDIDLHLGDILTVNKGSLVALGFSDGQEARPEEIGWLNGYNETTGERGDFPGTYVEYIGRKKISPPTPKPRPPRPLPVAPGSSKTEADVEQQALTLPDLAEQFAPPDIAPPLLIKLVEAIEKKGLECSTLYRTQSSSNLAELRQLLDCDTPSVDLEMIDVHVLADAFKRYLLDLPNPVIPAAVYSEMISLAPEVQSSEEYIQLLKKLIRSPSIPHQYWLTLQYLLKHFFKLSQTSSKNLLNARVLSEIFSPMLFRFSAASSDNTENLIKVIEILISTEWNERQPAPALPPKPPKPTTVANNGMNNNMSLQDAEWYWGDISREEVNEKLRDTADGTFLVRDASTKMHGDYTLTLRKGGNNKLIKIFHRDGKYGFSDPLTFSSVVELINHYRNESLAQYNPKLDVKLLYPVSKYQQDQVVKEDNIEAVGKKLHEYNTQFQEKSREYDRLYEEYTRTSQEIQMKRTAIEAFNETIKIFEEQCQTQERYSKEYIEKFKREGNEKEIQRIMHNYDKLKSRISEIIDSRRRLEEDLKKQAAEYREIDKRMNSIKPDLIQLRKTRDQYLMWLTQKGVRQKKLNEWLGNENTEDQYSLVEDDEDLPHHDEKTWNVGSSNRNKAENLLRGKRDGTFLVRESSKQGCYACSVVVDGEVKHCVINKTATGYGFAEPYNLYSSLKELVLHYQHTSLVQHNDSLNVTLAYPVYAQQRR
PI3K δ, sequence (O00329 whole entry): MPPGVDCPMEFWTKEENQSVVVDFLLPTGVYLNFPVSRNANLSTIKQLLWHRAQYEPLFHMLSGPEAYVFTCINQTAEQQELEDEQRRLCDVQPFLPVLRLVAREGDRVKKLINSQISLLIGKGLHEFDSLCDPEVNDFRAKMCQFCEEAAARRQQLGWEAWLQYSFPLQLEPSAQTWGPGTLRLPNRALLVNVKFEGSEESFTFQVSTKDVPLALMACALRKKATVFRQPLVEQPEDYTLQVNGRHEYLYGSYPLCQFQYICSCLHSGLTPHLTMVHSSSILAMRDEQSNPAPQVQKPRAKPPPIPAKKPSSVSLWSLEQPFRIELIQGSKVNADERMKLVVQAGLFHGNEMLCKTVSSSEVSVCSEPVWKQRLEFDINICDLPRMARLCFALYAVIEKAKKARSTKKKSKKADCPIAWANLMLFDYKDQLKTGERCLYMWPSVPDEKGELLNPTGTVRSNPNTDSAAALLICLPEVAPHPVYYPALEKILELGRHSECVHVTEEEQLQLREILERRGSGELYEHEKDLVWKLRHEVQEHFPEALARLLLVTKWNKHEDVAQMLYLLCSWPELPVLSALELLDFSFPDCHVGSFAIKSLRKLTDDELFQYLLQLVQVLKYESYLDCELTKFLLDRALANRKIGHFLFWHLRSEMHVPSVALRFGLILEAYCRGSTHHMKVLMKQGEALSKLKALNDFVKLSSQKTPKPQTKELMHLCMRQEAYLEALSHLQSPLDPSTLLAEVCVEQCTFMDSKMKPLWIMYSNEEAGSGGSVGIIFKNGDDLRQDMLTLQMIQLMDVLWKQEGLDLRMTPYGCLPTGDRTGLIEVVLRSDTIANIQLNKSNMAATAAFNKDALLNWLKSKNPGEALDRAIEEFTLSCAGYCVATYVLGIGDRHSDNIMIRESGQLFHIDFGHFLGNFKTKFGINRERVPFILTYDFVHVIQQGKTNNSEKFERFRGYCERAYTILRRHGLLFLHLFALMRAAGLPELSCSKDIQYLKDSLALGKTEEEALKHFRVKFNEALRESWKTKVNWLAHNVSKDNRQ
PI3K δ, sequence (P27986 whole entry partner): as the sequence (P27986 whole entry partner) above
T2 sequence (P42336 whole entry): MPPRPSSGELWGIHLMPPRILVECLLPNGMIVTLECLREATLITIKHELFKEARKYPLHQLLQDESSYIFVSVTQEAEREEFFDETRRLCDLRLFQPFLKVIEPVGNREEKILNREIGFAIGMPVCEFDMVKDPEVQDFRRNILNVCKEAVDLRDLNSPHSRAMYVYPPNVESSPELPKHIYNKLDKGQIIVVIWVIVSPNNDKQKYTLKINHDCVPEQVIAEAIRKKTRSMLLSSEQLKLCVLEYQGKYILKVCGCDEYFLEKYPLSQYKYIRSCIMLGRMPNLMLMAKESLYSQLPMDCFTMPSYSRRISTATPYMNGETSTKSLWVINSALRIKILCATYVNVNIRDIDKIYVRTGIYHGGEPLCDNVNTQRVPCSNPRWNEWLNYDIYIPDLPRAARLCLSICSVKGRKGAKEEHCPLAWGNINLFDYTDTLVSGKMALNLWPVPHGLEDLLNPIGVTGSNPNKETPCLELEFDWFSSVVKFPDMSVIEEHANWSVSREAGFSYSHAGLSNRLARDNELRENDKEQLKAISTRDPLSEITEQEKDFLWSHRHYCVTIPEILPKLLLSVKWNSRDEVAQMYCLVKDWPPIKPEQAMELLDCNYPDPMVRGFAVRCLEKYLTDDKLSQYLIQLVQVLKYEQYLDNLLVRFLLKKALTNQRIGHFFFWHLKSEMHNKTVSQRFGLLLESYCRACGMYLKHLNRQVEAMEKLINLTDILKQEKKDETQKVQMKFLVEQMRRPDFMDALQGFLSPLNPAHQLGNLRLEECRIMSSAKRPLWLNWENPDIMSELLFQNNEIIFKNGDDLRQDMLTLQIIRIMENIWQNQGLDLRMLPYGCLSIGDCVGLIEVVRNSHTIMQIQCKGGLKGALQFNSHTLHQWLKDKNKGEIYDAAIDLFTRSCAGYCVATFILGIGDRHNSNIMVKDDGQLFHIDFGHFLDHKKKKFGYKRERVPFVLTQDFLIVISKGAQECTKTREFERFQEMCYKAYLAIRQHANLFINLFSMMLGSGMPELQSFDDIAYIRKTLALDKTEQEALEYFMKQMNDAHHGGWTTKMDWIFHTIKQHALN
T2 sequence (P27986 whole entry partner): as the sequence (P27986 whole entry partner) above
PI3K γ, sequence (P48736 whole entry): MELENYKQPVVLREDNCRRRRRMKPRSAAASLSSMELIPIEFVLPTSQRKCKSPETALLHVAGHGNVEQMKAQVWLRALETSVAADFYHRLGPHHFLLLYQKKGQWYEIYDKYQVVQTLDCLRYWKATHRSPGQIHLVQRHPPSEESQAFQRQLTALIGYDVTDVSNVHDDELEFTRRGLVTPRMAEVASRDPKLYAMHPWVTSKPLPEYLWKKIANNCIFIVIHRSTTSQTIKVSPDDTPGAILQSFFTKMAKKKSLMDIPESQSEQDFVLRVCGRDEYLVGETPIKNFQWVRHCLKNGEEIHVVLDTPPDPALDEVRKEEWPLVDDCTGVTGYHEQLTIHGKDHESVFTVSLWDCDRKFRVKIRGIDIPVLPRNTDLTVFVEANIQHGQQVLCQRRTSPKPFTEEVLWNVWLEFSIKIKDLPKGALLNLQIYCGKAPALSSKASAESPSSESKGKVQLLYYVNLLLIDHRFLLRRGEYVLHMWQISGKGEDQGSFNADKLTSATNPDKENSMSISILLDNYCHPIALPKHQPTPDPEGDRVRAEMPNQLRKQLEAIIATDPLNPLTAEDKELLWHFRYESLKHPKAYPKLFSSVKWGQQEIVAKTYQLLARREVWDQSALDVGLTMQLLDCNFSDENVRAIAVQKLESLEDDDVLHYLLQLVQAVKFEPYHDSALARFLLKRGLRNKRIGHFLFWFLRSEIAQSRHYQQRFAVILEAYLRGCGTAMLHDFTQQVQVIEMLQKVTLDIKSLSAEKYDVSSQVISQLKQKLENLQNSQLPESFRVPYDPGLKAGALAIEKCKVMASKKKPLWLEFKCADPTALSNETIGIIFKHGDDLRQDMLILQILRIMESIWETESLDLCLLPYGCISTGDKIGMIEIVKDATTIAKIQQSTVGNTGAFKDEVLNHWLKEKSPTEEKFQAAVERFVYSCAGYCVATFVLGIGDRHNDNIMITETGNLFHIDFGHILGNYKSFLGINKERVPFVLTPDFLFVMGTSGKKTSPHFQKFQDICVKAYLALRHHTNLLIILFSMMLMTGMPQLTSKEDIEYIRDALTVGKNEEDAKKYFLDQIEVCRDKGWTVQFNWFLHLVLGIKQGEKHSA

C=CC(=O)Nc1cccc(Nc2nc(Nc3ccc(OCCOC)cc3)ncc2F)c1 [AVL-292, N-(3-((5-fluoro-2-((4-(2-methoxyethoxy)phenyl)amino)pyrimidin-4-yl)amino)phenyl)acrylamide]
CI50 (inhibition) (HH): U (U=0.7 to <1) | CI50 (growth inhibition) (KARPAS-422): U (U=0.7 to <1) | CI50 (inhibition) (U-2932): W (W=≧1) | CI50 (growth inhibition) (OCI-Ly7): W (W=≧1) | CI50 (growth inhibition) (Jeko-1): U (U=0.7 to <1) | CI50 (inhibition) (Jeko-1): U (U=0.7 to <1) | CI50 (growth inhibition) (GRANTA-519): W (W=≧1) | CI50 (growth inhibition) (OCI-LY3): U (U=0.7 to <1) | CI50 (growth inhibition) (NCI-H929): U (U=0.7 to <1) | CI50 (inhibition) (NCI-H929): U (U=0.7 to <1) | CI50 (inhibition) (HBL-1): W (W=≧1) | CI50 (inhibition) (OPM-2): U (U=0.7 to <1) | CI50 (growth inhibition) (KARPAS-299): U (U=0.7 to <1) | CI50 (growth inhibition) (RPMI-8226): U (U=0.7 to <1) | CI50 (inhibition) (RPMI-8226): W (W=≧1)

Cc1ccccc1-n1c(Cn2nc(I)c3c(N)ncnc32)cc2cccc(C)c2c1=O [Compound 31]
IC50 (PI3K δ): < 1 µM

N#Cc1nn(Cc2cc3ccccc3c(=O)n2-c2ccccc2F)c2ncnc(N)c12 [Compound 169]
IC50 (PI3K β): > 10 µM | IC50 (PI3K γ): > 10 µM | IC50 (PI3K δ): < 0.1 µM | EC50 (B cell): < 1 µM | IC50 (PI3K α): > 10 µM

Cc1cccc2cc(C(C)n3nc(-c4cn[nH]c4)c4c(N)ncnc43)n(C3CCN(C)CC3)c(=O)c12 (stereo not shown) [Compound 226]
IC50 (PI3K δ): < 1 µM

Cc1cccc2cc(C(C)Nc3ncnc4[nH]cnc34)n(C3CCN(C)CC3)c(=O)c12 (stereo not shown) [Compound 228]
IC50 (PI3K β): < 10 µM | IC50 (PI3K δ): < 1 µM

Cc1cccc2cc([C@H](C)Nc3ncnc4[nH]cnc34)n(-c3ccccc3)c(=O)c12 [Compound 238]
IC50 (PI3K β): > 10 µM | IC50 (PI3K γ): < 1 µM | IC50 (PI3K α): > 10 µM

CC(=O)Nc1nc2cc(-c3nn(Cc4cc5cccc(C)c5c(=O)n4-c4ccccc4)c4ncnc(N)c34)ccc2o1 [Compound 269]
IC50 (PI3K β): < 10 µM | IC50 (PI3K γ): < 1 µM | IC50 (PI3K δ): < 1 µM

Cc1cccc2cc([C@H](C)Nc3ncnc4[nH]c(Cl)cc34)n(C3CC3)c(=O)c12 [Compound 280]
IC50 (PI3K β): > 10 µM | IC50 (PI3K γ): > 10 µM | IC50 (PI3K δ): > 10 µM | IC50 (PI3K α): > 10 µM

C=CC(=O)N1CCC[C@@H](n2nc(-c3ccc(Oc4ccccc4)cc3)c3c(N)ncnc32)C1 [ibrutinib]
CI50 (growth inhibition) (NCI-H929): U (U=0.7 to <1) | CI50 (growth inhibition) (RL): U (U=0.7 to <1) | CI50 (inhibition) (RL): W (W=≧1)
